In PMC6196722 (Xenobiotica; the fate of foreign compounds in biological …, 2017) one finds Kd data, which are given here for two compounds.

For test [1], the target named is SULT1B1-WT (6xHis tagged) (Homo sapiens, UniProt O43704). Description: intrinsic fluorescence titration. The class given is binding.
For test [2], the target named is SULT1B1-WT (6xHis tagged) (Homo sapiens, UniProt O43704, L145V). Put plainly: intrinsic fluorescence titration. The class given is binding.

Structures are written as SMILES.

Sequence of SULT1B1-WT (6xHis tagged) (Homo sapiens, UniProt O43704, L145V) (O43704 whole entry L145V): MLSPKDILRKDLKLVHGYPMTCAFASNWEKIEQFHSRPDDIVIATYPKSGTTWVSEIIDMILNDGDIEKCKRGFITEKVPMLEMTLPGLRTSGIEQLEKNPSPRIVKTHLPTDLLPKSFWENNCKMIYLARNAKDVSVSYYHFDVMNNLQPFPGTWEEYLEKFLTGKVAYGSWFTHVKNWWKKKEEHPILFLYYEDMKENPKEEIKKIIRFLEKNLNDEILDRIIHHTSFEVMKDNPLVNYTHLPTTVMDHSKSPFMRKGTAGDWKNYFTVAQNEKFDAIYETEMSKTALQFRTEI
Sequence of SULT1B1-WT (6xHis tagged) (Homo sapiens, UniProt O43704) (O43704 whole entry): as the sequence (O43704 whole entry L145V) above, with V145L counted along it

A word on the Kd: it is the constant that tells how readily two partners part at equilibrium. Read a low Kd as tighter binding. `Nc1ncnc2c1ncn2[C@@H]1O[C@H](COP(=O)(O)OS(=O)(=O)O)[C@@H](OP(=O)(O)O)[C@H]1O` [PAPS]: the Kd in test [1] was determined as 872 nM; in test [2] it was 980 nM.

Turning to `Nc1ncnc2c1ncn2[C@@H]1O[C@H](COP(=O)(O)O)[C@@H](OP(=O)(O)O)[C@H]1O` [PAP], in test [2], the Kd was 405 nM.
